Reference: BindingDB's records for doi:10.1021/jm00100a021 (University of Illinois, 1992)

How the values were obtained:
[1] = biological target: Urokinase-type plasminogen activator (Homo sapiens, UniProt P00749); assay: ChEBML_213149
Excerpt: […] rate constant against Urokinase-type plasminogen activator

Serine protease 1 = biological target: T1, Serine protease 1 (Bos taurus, UniProt P00760); assay: ChEBML_212371
T1 sequence (P00760 whole entry): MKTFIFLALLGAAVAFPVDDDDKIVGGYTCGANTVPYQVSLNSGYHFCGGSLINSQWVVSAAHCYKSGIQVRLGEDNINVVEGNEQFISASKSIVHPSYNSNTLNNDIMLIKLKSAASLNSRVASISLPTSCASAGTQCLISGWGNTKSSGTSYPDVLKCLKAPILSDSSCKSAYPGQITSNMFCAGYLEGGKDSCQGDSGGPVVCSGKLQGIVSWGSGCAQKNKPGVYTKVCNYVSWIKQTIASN
Excerpt: […] rate constant against trypsin

koff [1] [s⁻¹]	koff (Serine protease 1) [s⁻¹]	SMILES
0.00015	3.3e-05	C=C1CC(c2ccc(N=C(N)N)cc2)CC(=O)O1 (stereo not drawn)
	0.000333	N=C(N)Nc1ccc(C2CC(=O)O/C(=C/I)C2)cc1 (stereo not drawn)
